A word on the Kd: it is a measure of binding affinity in units of concentration.

These results are taken from PubChem BioAssay AID1033 (Sanford-Burnham Center for Chemical Genomics, 2008).

Calls of active or inactive are those of the source. The rule behind the calls is not given here. Bounds are passed on as bounds.

For the assay, the target named is Chaperone protein DnaK (Escherichia coli (strain K12)) (UniProt P0A6Y8). Kind of assay: binders of DnaK substrate-binding domain, biophysical, NMR, chaperone (AID 1033). As to conditions: Purified DnaK SBD, NMR ligand binding.
Chaperone protein DnaK (Escherichia coli (strain K12)), sequence (P0A6Y8 whole entry, looked up, the tested form may be a part): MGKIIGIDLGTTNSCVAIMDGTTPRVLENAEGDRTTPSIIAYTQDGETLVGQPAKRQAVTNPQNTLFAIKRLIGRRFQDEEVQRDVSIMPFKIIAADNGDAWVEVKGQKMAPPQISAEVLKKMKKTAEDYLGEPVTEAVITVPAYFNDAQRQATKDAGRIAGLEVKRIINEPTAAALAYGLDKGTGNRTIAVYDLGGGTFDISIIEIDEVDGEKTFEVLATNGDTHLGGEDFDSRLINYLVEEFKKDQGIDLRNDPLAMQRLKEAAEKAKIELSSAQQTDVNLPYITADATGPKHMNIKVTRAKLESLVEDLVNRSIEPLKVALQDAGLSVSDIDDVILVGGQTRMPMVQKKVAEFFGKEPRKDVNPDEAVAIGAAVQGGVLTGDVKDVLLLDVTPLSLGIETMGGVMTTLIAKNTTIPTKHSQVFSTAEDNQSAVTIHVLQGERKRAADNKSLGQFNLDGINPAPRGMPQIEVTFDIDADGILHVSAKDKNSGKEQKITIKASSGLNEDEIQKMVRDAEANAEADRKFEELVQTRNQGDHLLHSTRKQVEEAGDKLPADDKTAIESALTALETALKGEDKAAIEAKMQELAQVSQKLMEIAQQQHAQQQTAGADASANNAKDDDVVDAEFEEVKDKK
Turning to `N#Cc1nc(-c2cccs2)oc1N1CCOCC1`, the Kd is > 4 mM (inactive). Under `OCC1Cc2ccccc2N1` (configuration not stated) stands > 4 mM (inactive); under `Nc1cccc2c(=O)[nH][nH]c(=O)c12`, > 4 mM (inactive); under `Cn1ccc(NC(=S)NC2CCCC2)n1`, > 4 mM (inactive). Under `CC(=O)Nc1ccc(S(=O)(=O)N(C)C)cc1` stands > 4 mM (inactive). Take `Cc1cc(=O)n2ccc(CN3CCOCC3)c(O)c2n1`: the Kd was > 4 mM (inactive). As to `Nc1nonc1-c1nc2ccccc2[nH]1`, the Kd is > 4 mM (inactive). Regarding `Cc1ncoc1C(=O)Nc1ccccc1C(N)=O`, the Kd was > 4 mM (inactive).

For `CN1CCC(N2CCCC(C(N)=O)C2)CC1` (configuration not stated), the Kd was > 4 mM (inactive). For `NC(=O)C1CCN(CN2C(=O)c3ccccc3C2=O)CC1`, the Kd was > 4 mM (inactive). Take `COc1cc(O)c2c(=O)c(O)c(-c3ccc(O)c(O)c3)oc2c1`: the Kd is > 4 mM (inactive). Take `O=C(Nn1cnnc1)c1cc2c(s1)CCCC2`: the Kd is > 4 mM (inactive).

Regarding `Nc1nnc(C(F)(F)F)s1`, the Kd is > 4 mM (inactive).

As to `CC1CN(Cc2ccccn2)CCC1=O` (configuration not stated), the Kd is > 4 mM (inactive). Under `CN1CCN(C(=S)NC(=O)c2ccn(C)n2)CC1` stands > 4 mM (inactive); under `O=C(Nc1ccc(N2CCOCC2)cc1)c1cnsn1`, > 4 mM (inactive). Regarding `CC(=O)Nc1ccc(NC(C)=O)cc1`, the Kd is > 4 mM (inactive). Regarding `COc1cc(C(=O)NCC2CCCO2)cc(OC)c1OC` (configuration not stated), the Kd is > 4 mM (inactive). With `CC1SC(=NC(=O)c2ccco2)NC1=O` (configuration not stated), the Kd is > 4 mM (inactive).

Regarding `CC(=O)Oc1ccccc1N1C(=O)C=CC1=O`, the Kd is > 4 mM (inactive). Under `CCOC(=O)c1c(C)cc(O)c(C=O)c1O` stands > 4 mM (inactive); under `Cc1ccc2c(C)c(C(=O)Nc3nnc(C)s3)oc2c1`, > 4 mM (inactive); under `NCC1COc2ccccc2O1` (configuration not stated), > 4 mM (inactive). As to `COc1c(O)cc(O)cc1O`, the Kd is > 4 mM (inactive).

On to `Cc1nnsc1C(=O)Nc1cccc(S(N)(=O)=O)c1`, for which the Kd is > 4 mM (inactive). Under `N#CCc1nc2ccccc2s1` stands > 4 mM (inactive); under `Oc1ccccc1C(=S)N1CCCCCC1`, > 4 mM (inactive); under `O=S(=O)(Cc1ccccc1Cl)Nc1ccccn1`, > 4 mM (inactive).

On to `Nc1nc2ccccc2n1CCN1CCCC1`, for which the Kd is > 4 mM (inactive). For `Cn1c(-c2ccccc2F)n[nH]c1=S`, the Kd was > 4 mM (inactive). For `C=CCc1ccc(OC(=O)c2ccccc2)c(OC)c1`, the Kd is > 4 mM (inactive). Under `CN1CCC[C@H]1c1cccnc1` stands > 4 mM (inactive); under `CC1CCN(C(=O)c2ccc(NS(C)(=O)=O)cc2)CC1`, > 4 mM (inactive); under `N#CCCn1c(=O)oc2ccccc21`, > 4 mM (inactive).

With `Cc1noc(-c2ccccc2)c1CO`, the Kd was > 4 mM (inactive). Take `O=C(Nc1ccccc1C(F)(F)F)c1cnccn1`: the Kd is > 4 mM (inactive). Take `NC1=NC(=O)/C(=C\c2ccccc2)S1`: the Kd is > 4 mM (inactive). As to `NCc1ccccc1N1CCCCC1`, the Kd was > 4 mM (inactive).

In the case of `CCOC(=O)c1[nH]cnc1C(=O)OC(C)C`, the Kd is > 4 mM (inactive). Turning to `NC(=O)CCn1cnc2ccccc21`, the Kd was > 4 mM (inactive).

Turning to `Cn1ncc(NC(=O)Nc2ccc(F)cc2F)c1C(N)=O`, the Kd is > 4 mM (inactive). Take `Cc1cc(C)n(S(=O)(=O)c2cc(C)c(C)cc2C)n1`: the Kd is > 4 mM (inactive). Take `O=C(O)CC12CC3CC(CC(O)(C3)C1)C2`: the Kd was > 4 mM (inactive). `O=C(Nc1cccc2cccnc12)c1cccnc1`: the Kd was > 4 mM (inactive). Under `CN1CCC(NC(=O)c2ccccc2[N+](=O)[O-])CC1` stands > 4 mM (inactive); under `CN1CCN(CC(=O)N2CCc3ccccc32)CC1`, > 4 mM (inactive). In the case of `CS(=O)(=O)Nc1ccc(C(=O)N2CCCCC2)cc1`, the Kd is > 4 mM (inactive). In the case of `CC1(C)NCCN2C(=O)CSC21` (configuration not stated), the Kd is > 4 mM (inactive).

Take `COc1cc2c(cc1OC)[C@@H]1C(=O)c3ccc4oc(C(C)C)cc4c3O[C@@H]1CO2`: the Kd was > 4 mM (inactive). Regarding `O=C1c2ccccc2C(=O)N1CCc1ccccn1`, the Kd is > 4 mM (inactive). Under `COc1cc(O)c(C(C)=O)c(OC)c1` stands > 4 mM (inactive). Turning to `CS(=O)(=O)Nc1nnc(Cc2ccccc2)s1`, the Kd is > 4 mM (inactive). As to `C[C@H]1[C@H](C)CC[C@]2(CO)CC[C@]3(C)C(=CCC4[C@@]5(C)CC[C@H](O)C(C)(C)C5CC[C@]43C)[C@H]12` (some centres not stated), the Kd is > 4 mM (inactive). Regarding `COc1ccc2c(c1)OCC(Cc1ccc(OC)c(OC)c1)C2=O` (configuration not stated), the Kd is > 4 mM (inactive).

For the compound `Nc1ccc2c(C(F)(F)F)cc(=O)oc2c1`, the Kd is > 4 mM (inactive). Consider `C=CCCCCCCCCCCCc1ccco1`, for which the Kd is > 4 mM (inactive).

As for `Cc1cc(C(=O)N2CCOCC2)c(C)o1`, the Kd is > 4 mM (inactive). For `Cc1occc1C(=O)Nc1nnc(-c2ccncc2)s1`, the Kd is > 4 mM (inactive).

Take `CNC(=O)Oc1ccc2c(c1)[C@]1(C)CCN(C)[C@@H]1N2C`: the Kd was > 4 mM (inactive). For `O=c1[nH]nc(Cc2ccncc2)c2ccccc12`, the Kd is > 4 mM (inactive). Turning to `Cc1nc(-c2ccccc2)sc1C(N)=O`, the Kd was > 4 mM (inactive). Under `[O-][n+]1onc2c1CCc1c-2nc(-c2ccccc2)n1O` stands > 4 mM (inactive). Consider `COC1C(O)C(O)C(O)[C@@H](O)C1O` (some centres not stated), for which the Kd was > 4 mM (inactive). Regarding `O=c1ccc2ccccc2o1`, the Kd is > 4 mM (inactive). Turning to `COc1c2ccoc2cc2oc(=O)ccc12`, the Kd is > 4 mM (inactive). Under `Cc1nn(CC(=O)N2CCCCC2)c(=O)c2ccccc12` stands > 4 mM (inactive); under `Cn1nnc2c(Cl)ncnc21`, > 4 mM (inactive). As to `O=C(Nc1nccs1)c1ccc(=O)[nH]n1`, the Kd is > 4 mM (inactive). Under `Cc1noc(C)c1C(=O)N1CCN(c2ncccn2)CC1` stands > 4 mM (inactive). As for `c1csc(-c2nnc3ccccn23)c1`, the Kd was > 4 mM (inactive). For `Cc1nc2ccccc2c(=O)n1/N=C/c1ccncc1`, the Kd was > 4 mM (inactive). With `CCC(CO)NC(=O)c1snnc1C` (configuration not stated), the Kd was > 4 mM (inactive). On to `Cc1cc(C(F)(F)F)nn1CC(N)=O`, for which the Kd was > 4 mM (inactive). For the compound `Nc1ncnc2c1ncn2CCN1CCOCC1`, the Kd is > 4 mM (inactive).

As for `CNS(=O)(=O)c1cc(OC)ccc1OC`, the Kd is > 4 mM (inactive).

On to `COc1cc(S(=O)(=O)Nc2cccnc2)ccc1F`, for which the Kd is > 4 mM (inactive).

`O=C(NCc1cccs1)c1nc2ncccn2n1`: the Kd result was “inactive”. Under `O=C1CN(C(=O)CN2CCOCC2)c2ccccc2N1` stands > 4 mM (inactive). Regarding `COc1ccc(NC(=O)CSc2nccc(=O)[nH]2)cc1`, the Kd was > 4 mM (inactive). Take `CCN1C(=O)N(CO)C2C1N(C)C(=O)N2C` (configuration not stated): the Kd was > 4 mM (inactive).

Consider `O=C1NC(=Nc2ccccc2Cl)SC1(CO)CO`, for which the Kd is > 4 mM (inactive). Take `O=C1C=C(Nc2ccccc2O)c2ccccc2C1=O`: the Kd is > 4 mM (inactive).

Consider `COc1ccc(/C=N/n2cn[nH]c2=S)cc1`, for which the Kd was > 4 mM (inactive).

In the case of `CCCCC(Nc1n[nH]c(=O)[nH]c1=O)C(=O)O` (configuration not stated), the Kd is > 4 mM (inactive).

For the compound `Cc1cc(C)n(CCC(=O)O)n1`, the Kd is > 4 mM (inactive). For `O=C(Nn1cnnc1)c1csc2ccccc12`, the Kd is > 4 mM (inactive). In the case of `CC(=O)O[C@H]1CC[C@@]2(C)C(CC[C@]3(C)C2CC=C2C4CC(C)(C)CC[C@]4(C)CC[C@]23C)C1(C)C` (some centres not stated), the Kd is > 4 mM (inactive). `O=C(Nc1cccnc1)c1ccc(Br)s1`: the Kd is > 4 mM (inactive). For the compound `CC1CC2(NC(=O)NC2=O)C(C)CN1C` (configuration not stated), the Kd was > 4 mM (inactive). Under `Cc1c(-c2ccc(F)cc2)[n+](=O)c2c(n1[O-])CCC2` stands > 4 mM (inactive); under `O=C(/C=C/c1ccc(O)cc1)c1ccc(O)cc1O`, > 4 mM (inactive); under `Cc1occc1C(=O)Nc1nnc(C2CCCCC2)s1`, > 4 mM (inactive). For `Cc1ccc2[nH]cc(CCN)c2c1`, the Kd is > 4 mM (inactive). Regarding `COc1ccc(C(=O)NNC(=S)NC(C)=O)cc1`, the Kd is > 4 mM (inactive).

Regarding `NC(=O)C12CC3CC(C1)C(=O)C(C3)C2`, the Kd was > 4 mM (inactive). Consider `NC(=O)c1ccsc1NC(=O)C1=COCCO1`, for which the Kd is > 4 mM (inactive). On to `Cc1nc2ccccc2c(=O)[nH]1`, for which the Kd is > 4 mM (inactive). Take `O=C1CCC([N+](=O)[O-])C(c2ccccc2F)N1` (configuration not stated): the Kd is > 4 mM (inactive). As for `CCOC(=O)C1C(=O)C2CCN1CC2` (configuration not stated), the Kd was > 4 mM (inactive).

With `Nc1ccccc1N=C1CNC(=O)C1`, the Kd was > 4 mM (inactive). Consider `O=C1NC(=O)C(C(C[N+](=O)[O-])c2ccc(O)cc2)C(=O)N1` (configuration not stated), for which the Kd is > 4 mM (inactive). Under `O=C(O)CC1NCCNC1=O` (configuration not stated) stands > 4 mM (inactive). With `O=C(Nc1ccccc1)C(=O)NC1CC1`, the Kd was > 4 mM (inactive). As for `NC(=O)CN1CC(=O)NC(=O)C1`, the Kd is > 4 mM (inactive). On to `CC(=O)Cc1nsc(NC(=O)c2ccc(C)cc2)n1`, for which the Kd was > 4 mM (inactive). Take `Cc1cc(C(=O)N2CCN(c3ncccn3)CC2)cs1`: the Kd was > 4 mM (inactive). As for `COc1ccc2c(c1OC)OC[C@@H](c1ccc(OC)c(OC)c1OC)C2`, the Kd is > 4 mM (inactive).
